Marks after values point to notes of the source that are not given here.
What was measured:
[1] = 28 day twice daily topical administration, toxicokinetics, dermal irritancy and toxicity; format: in vivo, Gottingen minipigs; details: for concentration at 29 day: Skin Concentration
Protocol: Following dose application on each dosing day, the dose sites were semi-occluded for approximately 20±1 hours from the first dose and then gently washed before the next dose was applied.

[2] = solubility of the active ingredient in solvents; format: physicochemical
Protocol: The solubility of the active ingredient in different solvents was determined. […] The following formulations were prepared with 5%, 10%, 15% and 20% MCT (Formulations 15-18). Two formulations (Formulations 19 and 20) were also prepared where Polawax (a proprietary blend of cetostearyl alcohol and emulsifiers) was replaced with cetostearyl alcohol and additional emulsifier.

[3] = test system: AhR pathway; details: intestinal human colon adenocarcinoma
[4] = Dermal 4% cream, BID, Minipig, 13 weeks
[5] = Gao et al., Journal of Polymer Research 2011; cited from earlier work
[6] = in vivo; details: minipig, topical or ocular, 4 % cream, BID
[7] = in vivo; details: rat, sc, 3 mg/kg/day

Compound: CC(C)c1c(O)cc(/C=C/c2ccccc2)cc1O [3,5-Dihydroxy-4-isopropyl-trans-stilbene]
- survival to scheduled necropsy ([1]; 28 days): All animals survived
- Tmax ([1]; both sexes, Gottingen, minipig, in vivo, 60 mg/kg/day): 1 to 3 h
- NOAEL at 28 days ([1]; both sexes, Gottingen, minipig, in vivo, topical or ocular, highest dose tested, 28 days, read-out: NOAEL for dermal irritation or systemic toxicity): 60 mg/kg/day
- concentration at 29 day ([1]; female, Gottingen, minipig, 10 mg/kg/day, Epidermis/Upper Dermis): 2540 ng/g
- concentration at 29 day ([1]; female, Gottingen, minipig, 20 mg/kg/day, Epidermis/Upper Dermis): 2270 ng/g
- concentration at 29 day ([1]; female, Gottingen, minipig, 20 mg/kg/day, Lower Dermis): 305 ng/g
- concentration at 29 day ([1]; female, Gottingen, minipig, 60 mg/kg/day, Epidermis/Upper Dermis): 6530 ng/g
- concentration at 29 day ([1]; female, Gottingen, minipig, 60 mg/kg/day, Lower Dermis): 3040 ng/g
- AUC(0-t) ([1]; female, Gottingen, minipig, in vivo, topical or ocular, 60 mg/kg/day): 4.84 ng·h/mL
- concentration at 29 day ([1]; male, Gottingen, minipig, 10 mg/kg/day, Epidermis/Upper Dermis): 4830 ng/g
- concentration at 29 day ([1]; male, Gottingen, minipig, 10 mg/kg/day, Lower Dermis): 166 ng/g
- concentration at 29 day ([1]; male, Gottingen, minipig, 20 mg/kg/day, Epidermis/Upper Dermis): 3950 ng/g
- concentration at 29 day ([1]; male, Gottingen, minipig, 20 mg/kg/day, Lower Dermis): 615 ng/g
- concentration at 29 day ([1]; male, Gottingen, minipig, 60 mg/kg/day, Epidermis/Upper Dermis): 10000 ng/g
- concentration at 29 day ([1]; male, Gottingen, minipig, 60 mg/kg/day, Lower Dermis): 3660 ng/g
- dermal irritation at the dose site ([1]; minipig, in vivo, 60 mg/kg/day): no test article-related dermal irritation
- solubility in medium chain triglycerides (MCT) [2]: good solubility
- solubility in water [2]: not soluble
- activity on the AhR pathway [3]: activator
- Cmax NOAEL [4]: 7.13* ng/mL
- sensitivity to oxidation and photo degradation [5]: sensitive to oxidation and photo degradation
- AUC at 13 weeks [6]: 99 ng·h/mL
- Cmax [6]: 7.13 ng/mL
- Cmax [7]: 31.6 ng/mL

From patent US11612573B2, “Topical pharmaceutical compositions” (Dermavant Sciences GmbH, priority 2015, dated 2023)
